Laboratory results published in PubChem BioAssay (NCI).
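How tested: cells in 96-well plates exposed to compound for 48 hours at five concentrations. At the TGI there is no net growth.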

Columns and labels:
Experiment in all cases: NCI tumour cell line growth inhibition, 48 h
[1] = system: SF-539 CNS
[2] = system: UACC-257 melanoma
[3] = system: HCT-116 colon
[4] = system: HCT-15 colon
[5] = system: COLO 205 colon
[6] = system: SF-295 CNS
[7] = system: SN12C renal
[8] = system: BT-549 breast
[9] = system: RPMI-8226 leukemia
[10] = system: DU-145 prostate
[11] = system: SF-268 CNS
[12] = system: SR leukemia
[13] = system: MALME-3M melanoma
[14] = system: LXFL 529 NSCLC
[15] = system: IGROV1 ovarian
[16] = system: DLD-1 colon
[17] = system: NCI/ADR-RES ovarian
[18] = system: MDA-MB-435
[19] = system: NCI-H23 lung
[20] = system: HS 578T breast
[21] = system: SK-MEL-5 melanoma
[22] = system: SNB-78 CNS
[23] = system: 786-0 renal
[24] = system: PC-3 prostate
[25] = system: OVCAR-4 ovarian
[26] = system: KM12 colon
[27] = system: HT29 colon
[28] = system: RXF 393 renal
[29] = system: SK-MEL-2 melanoma
[30] = system: TK-10 renal
[31] = system: CAKI-1 renal
[32] = system: MCF7 breast
[33] = system: UACC-62 melanoma
[34] = system: CCRF-CEM leukemia
[35] = system: MOLT-4 leukemia
[36] = system: HL-60(TB) leukemia
[37] = system: SNB-75 CNS
[38] = system: NCI-H460 lung
[39] = system: DMS 273 small cell lung
[40] = system: OVCAR-5 ovarian
[41] = system: HOP-62 NSCLC
[42] = system: SNB-19 CNS
[43] = system: MDA-N
[44] = system: XF 498 CNS
[45] = system: KM20L2 colon
[46] = system: SK-OV-3 ovarian
[47] = system: M19-MEL melanoma
[48] = system: HOP-18 NSCLC
[49] = system: OVCAR-8 ovarian
[50] = system: NCI-H522 lung
[51] = system: M14 melanoma
[52] = system: SW-620 colon
[53] = system: RXF-631 renal
[54] = system: SK-MEL-28 melanoma
[55] = system: UO-31 renal
[56] = system: LOX IMVI melanoma
[57] = system: NCI-H226 lung
[58] = system: T-47D breast
[59] = system: MDA-MB-231 breast
[60] = system: HCC-2998 colon
[61] = system: OVCAR-3 ovarian
[62] = system: A498 renal
[63] = system: HOP-92 NSCLC
[64] = system: EKVX NSCLC
[65] = system: DMS 114 small cell lung
[66] = system: ACHN renal
[67] = system: U251 CNS
[68] = system: A549 NSCLC

O=C(CC1(O)C(=O)Nc2c(Cl)ccc(Cl)c21)c1ccco1 (stereo not drawn)
TGI [1]: 59.7 µM | TGI [2]: 40.1 µM | TGI [3]: 32.4 µM | TGI [4]: > 70.2 µM | TGI [5]: 33 µM | TGI [6]: 40.9 µM | TGI [7]: 31.8 µM | TGI [8]: > 100 µM | TGI [9]: 40.8 µM | TGI [10]: > 100 µM | TGI [11]: > 84.2 µM | TGI [12]: 14.8 µM | TGI [13]: 34.7 µM | TGI [14]: 27.4 µM | TGI [15]: 40 µM | TGI [16]: > 100 µM | TGI [17]: 74.1 µM | TGI [18]: 3.44 µM | TGI [19]: 34 µM | TGI [20]: 71.5 µM | TGI [21]: 31.7 µM | TGI [22]: > 100 µM | TGI [23]: 46.8 µM | TGI [24]: > 100 µM | TGI [25]: 24.5 µM | TGI [26]: > 78.3 µM | TGI [27]: > 93.4 µM | TGI [28]: 43.2 µM | TGI [29]: > 69.2 µM | TGI [30]: > 81.6 µM | TGI [31]: > 72.3 µM | TGI [32]: 39.5 µM | TGI [33]: 19.3 µM | TGI [34]: 26.9 µM | TGI [35]: 61 µM | TGI [36]: 35.1 µM | TGI [37]: 71.7 µM | TGI [38]: 45.6 µM | TGI [39]: > 100 µM | TGI [40]: 38.7 µM | TGI [41]: 66.2 µM | TGI [42]: > 100 µM | TGI [43]: 12.8 µM | TGI [44]: 24.2 µM | TGI [45]: > 100 µM | TGI [46]: > 74.3 µM | TGI [47]: 5.33 µM | TGI [48]: > 100 µM | TGI [49]: > 73.8 µM | TGI [50]: > 100 µM | TGI [51]: 27.8 µM | TGI [52]: 56.4 µM | TGI [53]: 65.3 µM | TGI [54]: 38.2 µM | TGI [55]: 54.9 µM | TGI [56]: 29.4 µM | TGI [57]: 47.5 µM | TGI [58]: 72.9 µM | TGI [59]: 48.7 µM | TGI [60]: > 88.5 µM | TGI [61]: 18.7 µM | TGI [62]: 64 µM | TGI [63]: 49.8 µM | TGI [64]: 50.5 µM | TGI [65]: 33.5 µM | TGI [66]: 38.6 µM | TGI [67]: > 74.4 µM | TGI [68]: 49.9 µM
